This assay has as its target P2X7 receptor (Homo sapiens (Human), UniProt Q99572). The assay is described as follows: P2X7 FLIPR assay: antagonism of BzATP response in 293 HEK cells stably expressing P2X7 receptor. In kind it is cell-based. To be noted: FLIPR fluorescence (Fluo-4), agonist BzATP, 293 HEK cells stably transfected with P2X7 receptor. A digest of the protocol: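 Antagonist IC50 derived from FLIPR Tetra Fluo-4 calcium signal evoked by BzATP. Compound pre-incubation was 30 min at room temperature on P2X7-expressing HEK293 cells, seeded 24 h before in low-serum medium and dye-loaded 30 min at 37 °C then 30 min at RT.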

Structures are written as SMILES.

Sequence of P2X7 receptor (Q99572 whole entry): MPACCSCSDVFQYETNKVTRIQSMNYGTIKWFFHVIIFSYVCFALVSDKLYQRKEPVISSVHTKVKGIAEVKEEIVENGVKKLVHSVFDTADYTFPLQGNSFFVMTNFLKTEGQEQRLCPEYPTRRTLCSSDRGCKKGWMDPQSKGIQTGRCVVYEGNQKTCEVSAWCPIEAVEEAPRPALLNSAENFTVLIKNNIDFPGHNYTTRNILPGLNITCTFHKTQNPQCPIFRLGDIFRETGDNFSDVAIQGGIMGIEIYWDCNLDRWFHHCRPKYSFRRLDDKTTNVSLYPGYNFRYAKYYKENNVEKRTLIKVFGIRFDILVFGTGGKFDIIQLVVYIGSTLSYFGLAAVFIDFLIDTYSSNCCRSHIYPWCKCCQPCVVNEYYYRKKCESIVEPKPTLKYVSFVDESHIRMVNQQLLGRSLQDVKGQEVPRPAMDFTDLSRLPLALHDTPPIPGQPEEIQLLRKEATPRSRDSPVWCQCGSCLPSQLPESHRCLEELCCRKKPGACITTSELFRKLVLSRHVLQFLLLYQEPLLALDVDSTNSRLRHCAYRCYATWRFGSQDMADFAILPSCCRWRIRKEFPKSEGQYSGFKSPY

`O=C(NCC(c1cnc(C(F)F)nc1)N1CCOCC1)c1cccc(F)c1Cl` (single isomer, unassigned; (+)) [(+)2-chloro-N-[2-[2-(difluoromethyl)pyrimidin-5-yl]-2-morpho] [(+)2-chloro-3-fluoro-N-(2-(2-(difluoromethyl)pyrimidin-5-yl)-2-morpholinoethyl)benzamide] came in with an IC50 of 4.8 nM.

Compound `COc1ccc(C(=O)NCC(c2cnc(C(F)(F)F)nc2)N2CCC(F)(F)CC2)c(Cl)c1OC` (single isomer, unassigned; (-)) [(−)2-chloro-N-[2-(4,4-difluoro-1-piperidyl)-2-[2-(trifluorom] [(−)2-chloro-3,4-dimethoxy-N-(2-(4,4-difluoropiperidin-1-yl)-2-(2-(trifluoromethyl)pyrimidin-5-yl)ethyl)benzamide] gave a half-inhibitory concentration (IC50) of 7.8 nM.

Compound `O=C(NCC(c1cnc(C(F)(F)F)nc1)N1CCOCC1)c1ccccc1Cl` (single isomer, unassigned; (+)) [(+)2-chloro-N-[2-morpholino-2-[2-(trifluoromethyl)pyrimidin-] [(+)2-Chloro-N-[2-morpholino-2-[2-(trifluoromethyl)pyrimidin-5-yl]ethyl]benzamide] registered a 50% inhibitory concentration (IC50) of 30 nM.

For `CCc1ncc(C(CNC(=O)c2c(Cl)cccc2Cl)N2CCC(F)(F)CC2)cn1` (single isomer, unassigned; (-)) [(−)2,6-dichloro-N-[2-(4,4-difluoro-1-piperidyl)-2-(2-ethylpy] [(−)2,6-dichloro-N-(2-(4,4-difluoropiperidin-1-yl)-2-(2-ethylpyrimidin-5-yl)ethyl)benzamide], the IC50 is 27 nM.

`Cc1ncc(C(CNC(=O)c2cccc(OC(F)F)c2Cl)N2CCC(F)(F)CC2)cn1` (single isomer, unassigned; (-)) [(−)2-chloro-3-(difluoromethoxy)-N-[2-(4,4-difluoro-1-piperid] [(−)2-chloro-3-(difluoromethoxy)-N-(2-(4,4-difluoropiperidin-1-yl)-2-(2-methylpyrimidin-5-yl)ethyl)benzamide]: the concentration for half-maximal inhibition (IC50) is 37 nM.

Compound `O=C(NCC(c1cnc(C(F)(F)F)nc1)N1CCC(F)(F)CC1)c1c(F)cc(F)cc1Cl` (single isomer, unassigned; (-)) [(−)2-chloro-N-[2-(4,4-difluoro-1-piperidyl)-2-[2-(trifluorom] [(−)2-chloro-4,6-difluoro-N-(2-(4,4-difluoropiperidin-1-yl)-2-(2-(trifluoromethyl)pyrimidin-5-yl)ethyl)benzamide] had an IC50 of 31 nM.

As to `Cc1ncc(C(CNC(=O)c2cccc(Cl)c2Cl)N2CCCCC2)cn1` (single isomer, unassigned; (+)) [(+)2,3-dichloro-N-[2-(2-methylpyrimidin-5-yl)-2-(1-piperidyl] [(+2,3-dichloro-N-(2-(2-methylpyrimidin-5-yl)-2-(piperidin-1-yl)ethyl)benzamide], the half-maximal inhibitory concentration (IC50) is 8.9 nM.

On to `O=C(NCC(c1cnc(C(F)(F)F)nc1)N1CCC(F)(F)CC1)c1ccccc1Cl` (centres unmarked) [2-chloro-N-(2-(4,4-difluoropiperidin-1-yl)-2-(2-(trifluoromethyl)pyrimidin-5-yl)ethyl)benzamide], for which the IC50 came to 2.8 nM. This IC50 lies about 3.2-fold lower than the previous one.

Compound `CCc1ncc(C(CNC(=O)c2cccc(Cl)c2Cl)N2CCC(F)(F)CC2)cn1` (single isomer, unassigned; (+)) [(+)2,3-dichloro-N-[2-(4,4-difluoro-1-piperidyl)-2-(2-ethylpy] [(+2,3-dichloro-N-(2-(4,4-difluoropiperidin-1-yl)-2-(2-ethylpyrimidin-5-yl)ethyl)benzamide] displayed an IC50 of 2.6 nM. This IC50 and that of the compound before are within 1.5-fold of each other.

The compound `Cc1ncc(C(CNC(=O)c2c(F)cccc2Cl)N2CCC(F)(F)CC2)cn1` (single isomer, unassigned; (-)) [(−)2-chloro-N-[2-(4,4-difluoro-1-piperidyl)-2-(2-methylpyrim] [(−)2-chloro-6-fluoro-N-(2-(4,4-difluoropiperidin-1-yl)-2-(2-methylpyrimidin-5-yl)ethyl)benzamide] gave an IC50 of 32 nM.

`Cc1cccc(C(=O)NCC(c2ccncc2)N2CCOCC2)c1C` (centres unmarked) [2,3-Dimethyl-N-(2-morpholin-4-yl-2-pyridin-4-yl-ethyl)-benzamide] returned an IC50 of 1400 nM. This IC50 is about 44-fold higher than that of the compound before.

`O=C(NCC(c1ccc(C(F)F)nc1)N1CCC(F)(F)CC1)c1cccc(Cl)c1Cl` (single isomer, unassigned; (-)) [(−)2,3-dichloro-N-[2-[6-(difluoromethyl)-3-pyridyl]-2-(4,4-d] [(−)2,3-dichloro-N-(2-(2-(difluoromethyl)pyridin-5-yl)-2-(4,4-difluoropiperidin-1-yl)ethyl)benzamide]: the IC50 was found to be 4.2 nM.

`O=C(NCC(c1ccc(C(F)(F)F)nc1)N1CCOCC1)c1c(F)cccc1F` (single isomer, unassigned; (-)) [(−)2,6-difluoro-N-[2-morpholino-2-[6-(trifluoromethyl)-3-pyr] [(−)2,6-difluoro-N-(2-morpholino-2-(6-(trifluoromethyl)pyridin-3-yl)ethyl)benzamide]: the IC50 amounted to 480 nM. Compared with the last compound, the IC50 is about 110-fold higher.

The compound `COc1cccc(C(=O)NCC(c2ccc(Cl)cc2)N2CCOCC2)c1Cl` (single isomer, unassigned; (+)) [(+)2-chloro-N-[2-(4-chlorophenyl)-2-morpholino-ethyl]-3-meth] [(+)2-chloro-N-(2-(4-chlorophenyl)-2-morpholinoethyl)-3-methoxybenzamide] registered an IC50 of 4.2 nM.

As for `O=C(NCC(c1cnc(C(F)(F)F)nc1)N1CCC(F)(F)CC1)c1c(Cl)ccc(F)c1Cl` (single isomer, unassigned; (-)) [(−)2,6-dichloro-N-[2-(4,4-difluoro-1-piperidyl)-2-[2-(triflu] [(−)2,6-dichloro-5-fluoro-N-(2-(4,4-difluoropiperidin-1-yl)-2-(2-(trifluoromethyl)pyrimidin-5-yl)ethyl)benzamide], the 50% inhibitory concentration (IC50) turned out to be 4.9 nM.

Turning to `Cc1ccc(C(CNC(=O)c2c(F)cccc2Cl)N2CCC(F)(F)CC2)cn1` (single isomer, unassigned; (+)) [(+)2-chloro-N-[2-(4,4-difluoro-1-piperidyl)-2-(6-methyl-3-py] [(+)2-chloro-N-(2-(4,4-difluoropiperidin-1-yl)-2-(6-methylpyridin-3-yl)ethyl)-6-fluorobenzamide], the IC50 turned out to be 110 nM.

With `O=C(NCC(c1cnc(C(F)(F)F)nc1)N1CCC(F)(F)CC1)c1c(F)cccc1Cl` (single isomer, unassigned; (-)) [(−)2-chloro-N-[2-(4,4-difluoro-1-piperidyl)-2-[2-(trifluorom] [(−)2-chloro-6-fluoro-N-(2-(4,4-difluoropiperidin-1-yl)-2-(trifluoromethyl)pyrimidin-5-yl)ethyl)benzamide], the IC50 stood at 8.2 nM.

`O=C(NCC(c1cnc(C(F)(F)F)nc1)N1CCC(F)(F)CC1)c1c(F)cc(Cl)cc1Cl` (single isomer, unassigned; (-)) [(−)2,4-dichloro-N-[2-(4,4-difluoro-1-piperidyl)-2-[2-(triflu] [(−)2,4-dichloro-6-fluoro-N-(2-(4,4-difluoropiperidin-1-yl)-2-(2-(trifluoromethyl)pyrimidin-5-yl)ethyl)benzamide]: the 50% inhibitory concentration (IC50) is 6.5 nM.

`O=C(NCC(c1cnc(C2CC2)nc1)N1CCC(F)(F)CC1)c1ccccc1Cl` (single isomer, unassigned; (+)) [(+)2-chloro-N-[2-(2-cyclopropylpyrimidin-5-yl)-2-(4,4-difluo] [(+)2-chloro-N-(2-(2-cyclopropylpyrimidin-5-yl)-2-(4,4-difluoropiperidin-1-yl)ethyl)benzamide] came in with an IC50 of 3 nM. This IC50 lies about 2.2-fold lower than the previous one.

`O=C(NCC(c1cnc(C(F)(F)F)nc1)N1CCOCC1)c1cccc(C(F)(F)F)c1Cl` (single isomer, unassigned; (-)) [(−)2-chloro-N-[2-morpholino-2-[2-(trifluoromethyl)pyrimidin-] [(−)2-Chloro-N-[2-morpholino-2-[2-(trifluoromethyl)pyrimidin-5-yl]ethyl]-3-(trifluoromethyl)benzamide]: the concentration for half-maximal inhibition (IC50) was found to be 9.9 nM.

As to `O=C(NCC(c1ccc(C2CC2)nc1)N1CCOCC1)c1cccc(Cl)c1Cl` (centres unmarked) [2,3-Dichloro-N-[2-(6-cyclopropyl-pyridin-3-yl)-2-morpholin-4-yl-ethyl]-benzamide], the IC50 was determined as 8.2 nM. The IC50 values of the last two compounds are within 1.5-fold of each other.

`O=C(NCC(c1cnc(C(F)(F)F)nc1)N1CCC(F)(F)CC1)c1c(Cl)cc(F)cc1Cl` (single isomer, unassigned; (+)) [(+)2,6-dichloro-N-[2-(4,4-difluoro-1-piperidyl)-2-[2-(triflu] [(+)2,6-dichloro-4-fluoro-N-(2-(4,4-difluoropiperidin-1-yl)-2-(2-(trifluoromethyl)pyrimidin-5-yl)ethyl)benzamide] came in with an IC50 of 7.5 nM.

`COc1ccc(C(CNC(=O)c2cccc(Cl)c2Cl)N2CCC(F)(F)CC2)cc1` (centres unmarked) [2,3-dichloro-N-[2-(4,4-difluoro-1-piperidyl)-2-(4-methoxyphenyl)ethyl]benzamide] had an IC50 of 0.6 nM.

As for `Cc1ncc(C(CNC(=O)c2cccc(Cl)c2Cl)N2CC(F)(F)C(F)(F)C2)cn1` (centres unmarked) [2,3-dichloro-N-(2-(2-methylpyrimidin-5-yl)-2-(3,3,4,4-tetrafluoropyrrolidin-1-yl)ethyl)benzamide], the half-maximal inhibitory concentration (IC50) turned out to be 2.6 nM.

Compound `O=C(NCC(c1cnc(C(F)(F)F)nc1)N1CCC(F)(F)CC1)c1c(Cl)cc(F)cc1Cl` (single isomer, unassigned; (-)) [(−)2,6-dichloro-N-[2-(4,4-difluoro-1-piperidyl)-2-[2-(triflu] [(−)2,6-dichloro-4-fluoro-N-(2-(4,4-difluoropiperidin-1-yl)-2-(2-(trifluoromethyl)pyrimidin-5-yl)ethyl)benzamide] came in with a half-maximal inhibitory concentration (IC50) of 15 nM. This IC50 lies about 5.8-fold higher than the previous one.

Consider `CN(C)c1ncc(C(CNC(=O)c2cccc(Cl)c2Cl)N2CCC(F)(F)CC2)cn1` (centres unmarked) [2,3-dichloro-N-(2-(4,4-difluoropiperidin-1-yl)-2-(2-(dimethylamino)pyrimidin-5-yl)ethyl)benzamide], for which the IC50 was 6.6 nM.

The term IC50 denotes the concentration needed to halve the response being measured. Higher therefore signals weaker potency.

Source of the values: US9415055B2, “Cyclic amines” (H. Lundbeck A/S, priority 2012, dated 2016).
